According to patent US20230167127A1, “COMPOUNDS AND THEIR USE IN THE TREATMENT OF BACTERIAL INFECTION” (Hoffmann-La Roche Inc., priority 2020, published 2023):
Where a name gives a salt, the structure may show the parent alone. Read-outs that look alike come from different tables or passages of the source.

Tested on: Escherichia coli ATCC 25922
Assay: 50% growth inhibitory concentration (IC50) determination, Iso-Sensitest broth dilution
Assay type: cell-based
Settings: strain Escherichia coli ATCC 25922, 10-point broth dilution, optical density at 600 nm over 16 h, read-out: Escherichia coli growth inhibition IC50
How it was run: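 10-point twofold Iso-Sensitest broth dilution (e.g. 50 to 0.097 μM final) with DMSO stocks, incubated at 35±2° C. Growth followed by OD 600 nm every 20 min over 16 h; IC50 derived from growth inhibition during logarithmic phase.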

[1] = Escherichia coli, ATCC25922, 16 h

| Compound | IC50 [1] [nM] | IC50 [nM] |
| --- | --- | --- |
| Cc1nc(OCC2(N)CC2)c(C#N)c2c1CC(CNCCC1CN(c3ccc4c(n3)NC(=O)CO4)C(=O)O1)C2 (centres unmarked) [Example 214, 3-[(1-aminocyclopropyl)methoxy]-1-methyl-6-[[2-[2-oxo-3-(3-oxo-4H-pyrido[3,2-b][1,4]oxazin-6-yl)-1,3-oxazolidin-5-yl]ethylamino]methyl]-6,7-dihydro-5H-cyclopenta[c]pyridine-4-carbonitrile] | < 97.7 | – |
| NC1(COc2cc(F)c3c(c2)CC(CNCCC2CN(c4cnc5c(n4)NC(=O)CO5)C(=O)O2)C3)CC1 (centres unmarked) [Example 161, 6-[5-[2-[[6-[(1-aminocyclopropyl)methoxy]-4-fluoro-2,3-dihydro-1H-inden-2-yl]methylamino]ethyl]-2-oxo-1,3-oxazolidin-3-yl]-4H-pyrazino[2,3-b][1,4]oxazin-3-one] | < 97.7 | – |
| N#Cc1cccc2c1CC(CNCCC1CN(c3ccc4c(n3)NC(=O)CO4)C(=O)O1)C2N (racemic) [Example 228, rac-1,2-trans-1-Amino-2-[[2-[2-oxo-3-(3-oxo-4H-pyrido[3,2-b][1,4]oxazin-6-yl)-1,3-oxazolidin-5-yl]ethylamino]methyl]-2,3-dihydro-1H-indene-4-carbonitrile] | 174 | – |
| N#Cc1cc(OCC2CNC2)cc2c1CC(CNCCC1CN(c3ccc4c(n3)NC(=O)CO4)C(=O)O1)C2 (centres unmarked) [Example 191, 6-(azetidin-3-ylmethoxy)-2-[[2-[2-oxo-3-(3-oxo-4H-pyrido[3,2-b][1,4]oxazin-6-yl)-1,3-oxazolidin-5-yl]ethylamino]methyl]-2,3-dihydro-1H-indene-4-carbonitrile; 2,2,2-trifluoroacetic acid] | 295 | – |
| N#CCOc1cc(F)c2c(c1)CC(CNCCC1CN(c3cnc4c(n3)NC(=O)CO4)C(=O)O1)C2 (centres unmarked) [Example 366, 2-[[7-fluoro-2-[[2-[2-oxo-3-(3-oxo-4H-pyrazino[2,3-b][1,4]oxazin-6-yl)-1,3-oxazolidin-5-yl]ethylamino]methyl]-2,3-dihydro-1H-inden-5-yl]oxy]acetonitrile; formic acid] | 144 | – |
| CNC(=O)COc1cc(F)c2c(c1F)CC(CNCCC1CN(c3cnc4c(n3)NC(=O)CO4)C(=O)O1)C2 (centres unmarked) [Example 393, 2-[[4,7-difluoro-2-[[2-[2-oxo-3-(3-oxo-4H-pyrazino[2,3-b][1,4]oxazin-6-yl)-1,3-oxazolidin-5-yl]ethylamino]methyl]-2,3-dihydro-1H-inden-5-yl]oxy]-N-methylacetamide] | < 97.7 | – |
| N#Cc1cccc2c1CC(NC1CCC3(CN(c4ccc5c(n4)NC(=O)CO5)C(=O)O3)C(N)C1)C2 (racemic) [Example 166, 2-[[rac-5,6-cis-5,8-trans-6-amino-2-oxo-3-(3-oxo-4H-pyrido[3,2-b][1,4]oxazin-6-yl)-1-oxa-3-azaspiro[4.5]decan-8-yl]amino]-2,3-dihydro-1H-indene-4-carbonitrile] | – | 172 |
| O=C1COc2ccc(N3C(=O)OC4CC(NCCC5Cc6cccc(Cl)c6C5)CCC43)nc2N1 (racemic) [Example 32, 6-[rac-3a,7a-trans-6,7a-cis-6-[2-(4-chloro-2,3-dihydro-1H-inden-2-yl)ethylamino]-2-oxo-3a,4,5,6,7,7a-hexahydro-1,3-benzoxazol-3-yl]-4H-pyrido[3.2-b][1,4]oxazin-3-one] | 710 | – |
| Cc1nc(Cl)nc2c1CC(CNCCC1CN(c3ccc4c(n3)NC(=O)CO4)C(=O)O1)C2 (centres unmarked) [Example 385, 6-[5-[2-[(2-chloro-4-methyl-6,7-dihydro-5H-cyclopenta[d]pyrimidin-6-yl)methylamino]ethyl]-2-oxo-1,3-oxazolidin-3-yl]-4H-pyrido[3,2-b][1,4]oxazin-3-one] | 923 | – |
| NC1c2cccc(Cl)c2CC1NCCCC1CN(c2ccc3c(n2)NC(=O)CO3)C(=O)O1 (racemic) [Example 244, 6-[2-oxo-5-[3-[[rac-1,2-trans-1-amino-4-chloro-2,3-dihydro-1H-inden-2-yl]amino]propyl]-1,3-oxazolidin-3-yl]-4H-pyrido[3,2-b][1,4]oxazin-3-one] | < 97.7 | – |
| CS(=O)(=O)NCCOc1cc(F)c2c(c1)CC(CNCCC1CN(c3cnc4c(n3)NC(=O)CO4)C(=O)O1)C2 (centres unmarked) [Example 324, N-[2-[[7-fluoro-2-[[2-[2-oxo-3-(3-oxo-4H-pyrazino[2,3-b][1,4]oxazin-6-yl)-1,3-oxazolidin-5-yl]ethylamino]methyl]-2,3-dihydro-1H-inden-5-yl]oxy]ethyl]methanesulfonamide] | 205 | – |
| Cc1nc(OCCN)c(C)c2c1CC(CNCCC1CN(c3ccc4c(n3)NC(=O)CO4)C(=O)O1)C2 (centres unmarked) [Example 171, 6-[5-[2-[[3-(2-aminoethoxy)-1,4-dimethyl-6,7-dihydro-5H-cyclopenta[c]pyridin-6-yl]methylamino]ethyl]-2-oxo-1,3-oxazolidin-3-yl]-4H-pyrido[3,2-b][1,4]oxazin-3-one] | 178 | – |
| Cc1ncc(F)c2c1CC(CCNCC1CN(c3cnc4c(n3)NC(=O)CO4)C(=O)O1)C2 (centres unmarked) [Example 265, 6-[5-[[2-(4-Fluoro-1-methyl-6,7-dihydro-5H-cyclopenta[c]pyridin-6-yl)ethylamino]methyl]-2-oxo-1,3-oxazolidin-3-yl]-4H-pyrazino[2,3-b][1,4]oxazin-3-one; formic acid] | < 97.7 | – |
| NC(CNCC1CN(c2ccc3c(n2)NC(=O)CO3)C(=O)O1)C1Cc2cccc(Cl)c2C1 (centres unmarked) [Example 158, 6-[5-[[[2-amino-2-(4-chloro-2,3-dihydro-1H-inden-2-yl)ethyl]amino]methyl]-2-oxo-1,3-oxazolidin-3-yl]-4H-pyrido[3,2-b][1,4]oxazin-3-one; formic acid] | 164 | – |
| N#Cc1cccc2c1CC(CNCCC1CN(c3cnc4c(n3)NC(=O)CO4)C(=O)O1)C2 (centres unmarked) [Example 35, 2-[[2-[2-oxo-3-(3-oxo-4H-pyrazino[2,3-b][1,4]oxazin-6-yl)-1,3-oxazolidin-5-yl]ethylamino]methyl]-2,3-dihydro-1H-indene-4-carbonitrile] | < 97.7 | – |
| CNCCOc1nc(C)c2c(c1C)CC(CNCCC1CN(c3ccc4c(n3)NC(=O)CO4)C(=O)O1)C2 (centres unmarked) [Example 173, 6-[5-[2-[[1,4-dimethyl-3-[2-(methylamino)ethoxy]-6,7-dihydro-5H-cyclopenta[c]pyridin-6-yl]methylamino]ethyl]-2-oxo-1,3-oxazolidin-3-yl]-4H-pyrido[3,2-b][1,4]oxazin-3-one] | 194 | – |
| CCOC(=O)c1cn(CC)c2c3c(c(F)cc2c1=O)CC(CNCCC1CN(c2ccc4c(n2)NC(=O)CO4)C(=O)O1)C3 (centres unmarked) [Example 225, ethyl 1-ethyl-6-fluoro-4-oxo-8-[[2-[2-oxo-3-(3-oxo-4H-pyrido[3,2-b][1,4]oxazin-6-yl)-1,3-oxazolidin-5-yl]ethylamino]methyl]-8,9-dihydro-7H-cyclopenta[h]quinoline-3-carboxylate] | 547 | – |
| CC(O)COc1cc(F)c2c(c1)CC(CNCCC1CN(c3cnc4c(n3)NC(=O)CO4)C(=O)O1)C2 (centres unmarked) [Example 351, 6-[5-[2-[[4-Fluoro-6-(2-hydroxypropoxy)-2,3-dihydro-1H-inden-2-yl]methylamino]ethyl]-2-oxo-1,3-oxazolidin-3-yl]-4H-pyrazino[2,3-b][1,4]oxazin-3-one; hydrochloride] | 144 | – |
| Cc1ncc(F)c2c1CC(NC1CC(C3CN(c4cnc5c(n4)NC(=O)CO5)C(=O)O3)C1)C2 (single isomer, unassigned; isomer a) [Example 328, 6-[5-[3-[(4-fluoro-1-methyl-6,7-dihydro-5H-cyclopenta[c]pyridin-6-yl)amino]cyclobutyl]-2-oxo-1,3-oxazolidin-3-yl]-4H-pyrazino[2,3-b][1,4]oxazin-3-one, Isomer A] | 885 | – |
| NC1(COc2ccc3c(c2Cl)CC(CNCCC2CN(c4ccc5c(n4)NC(=O)CO5)C(=O)O2)C3)CC1 (centres unmarked) [Example 117, 6-[5-[2-[[5-[(1-aminocyclopropyl)methoxy]-4-chloro-2,3-dihydro-1H-inden-2-yl]methylamino]ethyl]-2-oxo-1,3-oxazolidin-3-yl]-4H-pyrido[3,2-b][1,4]oxazin-3-one; formic acid] | < 97.7 | – |
| N#Cc1nccc2c1CC(CNCCC1CN(c3ccc4c(n3)NC(=O)CO4)C(=O)O1)C2 (centres unmarked) [Example 90, 6-[[2-[2-oxo-3-(3-oxo-4H-pyrido[3.2-b][1,4]oxazin-6-yl)-1,3-oxazolidin-5-yl]ethylamino]methyl]-6,7-dihydro-5H-cyclopenta[c]pyridine-1-carbonitrile; formic acid] | 170 | – |
| NCCOc1cc(Cl)c2c(c1)CC(NCCCC1CN(c3ccc4c(n3)NC(=O)CO4)C(=O)O1)C2 (centres unmarked) [Example 179, 6-[5-[3-[[6-(2-aminoethoxy)-4-chloro-2,3-dihydro-1H-inden-2-yl]amino]propyl]-2-oxo-1,3-oxazolidin-3-yl]-4H-pyrido[3,2-b][1,4]oxazin-3-one] | 103 | – |
| NC1CC(NCC2Cc3ccnc(Cl)c3C2)CCC12CN(c1ccc3c(n1)NC(=O)CO3)C(=O)O2 (racemic) [Example 206, 6-[rac-5,6-cis-5,8-trans-6-amino-8-[(1-chloro-6,7-dihydro-5H-cyclopenta[c]pyridin-6-yl)methylamino]-2-oxo-1-oxa-3-azaspiro[4.5]decan-3-yl]-4H-pyrido[3,2-b][1,4]oxazin-3-one] | 1160 | – |
| NC(=O)COc1cc(F)c2c(c1)CC(CNCC[C@H]1CN(c3cnc4c(n3)NC(=O)CO4)C(=O)O1)C2 (single isomer, unassigned; isomer b) [Example 380] | – | < 97.7 |
| O=C1COc2ccc(N3CC(CNCC4Cc5cccc(Cl)c5C4)OC3=O)nc2N1 (centres unmarked) [Example 21, 6-[5-[[(4-chloro-2,3-dihydro-1H-inden-2-yl)methylamino]methyl]-2-oxo-1,3-oxazolidin-3-yl]-4H-pyrido[3,2-b][1,4]oxazin-3-one; formic acid] | 453 | – |
| Cc1ncc(F)c2c1CC(N)(CCNCC1CN(c3ccc4c(n3)NC(=O)CO4)C(=O)O1)C2 (centres unmarked) [Example 280, 6-[5-[[2-(6-amino-4-fluoro-1-methyl-5,7-dihydrocyclopenta[c]pyridin-6-yl)ethylamino]methyl]-2-oxo-1,3-oxazolidin-3-yl]-4H-pyrido[3,2-b][1,4]oxazin-3-one] | 844 | – |
